In one data set the test system is PC3 cells. In words: Cell morphology and actin cytoskeleton in 2D monolayer culture. The note with it: PC3, 2D, 72h. It counts as cell-based. How it is done: As a control, we also tested morphologies treated with the same panel of anti-invasive compounds 4, 5, 6, 16 and 20 as well as betulin (1) on PC3 cells grown in 2D monolayer cultures (S9 Fig).
Supplementary file pone.0126111.s009.tif: S9 Fig Morphologies of PC-3, LNCaP and Ep156T cells in 2D monolayer culture, exposed 72h to selected betulin derivatives. Actin cytoskeleton (filamentous or F- actin) is stained green (LifeAct), nuclei with a red dye (confocal microscope images, 40× objective, scale bar shown for each panel on the right lower corner). (TIF) Click here for additional data file.

Data set [1] relates to phosphorylation levels of 43 kinases in PC-3 cells. In words: Phospho-kinase antibody array on lysates of 3D cultures. It counts as cell-based, human. The note with it: for p70 S6 kinase (T389), p53 (S392) and PYK2 (Y402) phosphorylation: 6-d exposure; for phosphorylation levels of STAT3 (Y727), c-Jun (S63), eNOS (S1177) and PLC-γ1 (Y783): both short (4 h, 1 μM) and long-term (6 d, 300 nM) exposures. As for the experimental part:
In order to elucidate possible mechanism of action for our betulin derivatives, we used a phospho-kinase array that quantitatively detects the phosphorylation levels of 43 kinases in cell lysates (Fig 7). Lysates were extracted from 3D cell cultures of PC-3 cells, and exposed to betulin-derived compounds for short (4 hours) or long-term (6 days) periods. For these studies, we selected the two representative derivatives 5 and 20 as the most specific, least cytotoxic inhibitors of cell invasion. […] The kinase arrays were also quantified by image densitometry (Fig 7A). […] The reduction of AKT activity by both compounds was validated by western blotting, using an independent, p-AKT specific antibody (Fig 7B). The short treatments caused only modest changes with a maximum reduction of protein phosphorylation by 2-fold (20: GSK-3α/β S21/S9 and STAT3 Y705). Phosphorylation levels of only three kinases were altered more than 2-fold in the long-term exposures, namely AKT (T308), p53 (S46) and eNOS (S1177), caused by nanomolar concentrations of compound 5. Compound 20 had much less dramatic effects on kinase phosphorylation when compared to compound 5, despite its generally more pronounced anti-invasive effects.
Fig 7 Mechanisms of action. PC-3 spheroids were exposed to two representative betulin derivatives, 5 and 20, for 4 h (at 1 μM) and 6 days (at 0.3 μM). A) Computational quantification of signal intensities from the kinase arrays, aligned by fold changes observed (left to right). B) Western blot of total and phospho-Akt (S473) shown for both short and long-term exposure to 20 and 5.
In order to generate sufficient protein material for antibody arrays, we resorted to 6-well Millicell hanging cell culture inserts (Merck Millipore, Billerica, MA, USA). Membranes were pre-coated with 4 mg/mL GFR Matrigel (Corning Inc., New York, NY, USA) and incubated at 37°C for 1 h to prevent attachment to the membrane. GFR Matrigel (2 mg/mL) was prepared and 100,000 cells were added in. The Matrigel-cell suspension was transferred into the coated wells and incubated overnight at 37°C. Fresh medium was added the following day under the insert. After four days in culture fresh media with compounds 20 and 5 at 0.3 μM concentration compounds were added for six days long-term exposure. On day 10, the same compounds were added in fresh medium at 1 μM concentration for the 4h short-term exposure. DMSO was used as a negative control in both exposures. Cells were harvested by first washing the inserts with ice cold PBS, then incubating the isolated ECM slabs in ice cold 5 mM ethylenediaminetetraacetic acid (EDTA) in PBS on ice on a table top rocker for 45 min to dissolve the ECM, and finally by washing the cell pellets once with PBS before lysing them in Lysis Buffer 6 (R&D Systems, Minneapolis, MN, USA). The antibody arrays used were from the Human Phospho-Kinase Array Kit (R&D Systems, Minneapolis, MN, USA). The samples were assayed according to manufacturer’s instructions. Exposed radiograms were scanned with a tabletop scanner and spot intensities quantified using Array-Pro Analyzer (v4.5.1.73) software.

The next data set can be described thus: in vitro. It counts as cell-based. The note with it: human. As for the experimental part:
To rule out that cytotoxic and antimitotic effects were misinterpreted as anti-invasive, we tested compounds 4, 5, 6, 19 and 20 for inhibition of proliferation and induction of cell death in a 2D monolayer culture (summarized in Fig 6). […] LNCaP cells were more sensitive, with growth inhibition/cytotoxicity starting at 3 μM. The effects on non-transformed, apoptosis-sensitive Ep156T cells were strongest. Here, cytotoxic effects were typically observed already at 0.3–1 μM. […] We further calculated EC50 values for proliferation, apoptosis and cell death for each compound, using the PerkinElmer Harmony software (method validation shown in S7 Fig). The only assay that produced results consistent with those of the betulin derivatives tested in the 2D cell culture model was the proliferation assay (Table 1).
Fig 6 Cytotoxicity tests performed in 2D monolayer culture. A) Cell proliferation/cell number, B) programmed cell death (apoptosis), and C) number of dead cells were assessed by conventional assays, combined with high-content microscopy (Operetta). […] Proliferation was measured as the total number of nuclei (= cells), apoptosis as ratio of caspase-3 positive versus all cells, and cell death as ethidium homodimer-2 positive nuclei versus all cells.
Cells were transferred into CellCarrier 384-well plates (PerkinElmer, Waltham, MA, USA) at a density of 1250 cells/well, using Multidrop dispenser (ThermoFisher Scientific, Waltham, MA, USA). After overnight incubation at 37°C experimental, compounds were added with an ATS Acoustic Transfer System (EDC Biosystems, Fremont, CA, USA). For Ep156T cells the protocol was done in reverse with compounds dispensed before seeding of cells. Fluorescent markers were dispensed in culture medium using ATS system after 72-h compound exposure. Nuclei were stained with cell-permeable Hoechst 33342 (Molecular Probes, Eugene, OR, USA), dead cells with ethidium homodimer-2 (Invitrogen, Carlsbad, CA, USA) and apoptotic cells with NucView caspase-3 detection reagent (Essen Bioscience, Ann Arbor, MI, USA). Cells were imaged with Operetta high-content imager (PerkinElmer, Waltham, MA, USA). Proliferation was measured from the number of nuclei (cells), cell death and apoptosis from positive cells/total cells ratio using Harmony image analysis software (PerkinElmer, Waltham, MA, USA). EC50 values were also assessed with the Harmony software.

SMILES strings stand for the structures.

For orientation: EC50 means the concentration needed to bring the measured effect to its halfway point. Read a high EC50 as weaker potency. `C=C(C)[C@@H]1CC[C@]2(C(=O)O)CC[C@]3(C)C(CCC4[C@@]5(C)Cc6ncccc6C(C)(C)C5CC[C@]43C)C12` (stereo partly shown) [Compound 20]: in the data set on PC3 cells, the “morphology and actin cytoskeleton of cells in 2D monolayer” value (from here on “morphology and actin cytoskeleton”) is “No morphologies and visible effects on the actin cytoskeleton”. In data set [1], the “AMPKα1 (T174) phosphorylation” value is “increased”; the “phosphorylation of mTOR (S2448), Fyn (Y420) and Src (Y419)” value is “increased”; the “phosphorylation levels of STAT3 (Y727), c-Jun (S63), eNOS (S1177) and PLC-γ1 (Y783)” value is “clearly decreased”. Also, the “p70 S6 kinase (T389), p53 (S392) and PYK2 (Y402) phosphorylation” value in data set [1] (300 nM) was “reduced”. Also, the “Akt (S473) phosphorylation” value in data set [1] (4 h at 1 μM vs 6 d at 300 nM) is on record as “only inhibited by the 6-d exposure”. For the same compound, the “phosphorylation of Hck (Y411), pan-JNK, GSK-3α/β (S21/S9), STAT3 (Y705) and WNK1 (T60) sites” value in data set [1] (compound-specific effects) is reported as “differential phosphorylation”. The “maximum reduction of protein phosphorylation (GSK-3α/β S21/S9 and STAT3 Y705)” value in data set [1] (short treatments, 4 h, 1 μM) is given as 2 fold. In data set [1] (short-term exposure, 4 h, 1 μM), the “p53 (S15) phosphorylation” value is recorded as “reduced”. In “in vitro”, the midpoint of the response, the EC50 at 72 h, lay at 67 µM.

In the case of `CC(C)[C@@H]1CC[C@]2(C(=O)O)CC[C@]3(C)C(CCC4[C@@]5(C)Cc6cnoc6C(C)(C)C5CC[C@]43C)C12` (stereo partly shown) [Compound 4], the “morphology and actin cytoskeleton” value with PC3 cells is “No morphologies and visible effects on the actin cytoskeleton”.

As for `C=C(C)[C@@H]1CC[C@]2(C(=O)O)CC[C@]3(C)C(CCC4[C@@]5(C)Cc6cnoc6C(C)(C)C5CC[C@]43C)C12` (stereo partly shown) [Compound 5], in the data set on PC3 cells, the “morphology and actin cytoskeleton” value was “No morphologies and visible effects on the actin cytoskeleton”. For the same compound, in data set [1], the “AMPKα1 (T174) phosphorylation” value is “increased”; the “phosphorylation of p53 sites S46 and S392” value is “consistently decreased”; the “phosphorylation levels of STAT3 (Y727), c-Jun (S63), eNOS (S1177) and PLC-γ1 (Y783)” value is reported as “clearly decreased”. In addition, in data set [1] (300 nM), the “p70 S6 kinase (T389), p53 (S392) and PYK2 (Y402) phosphorylation” value was “reduced”. For the same compound, the “alteration of phosphorylation levels of AKT (T308), p53 (S46) and eNOS (S1177)” value in data set [1] (long-term exposures, 6 d, nanomolar concentrations) is “more than 2 fold”. Further, in data set [1] (long-term treatment, 6 d, 300 nM), the “Akt (T308) phosphorylation” value is listed as “abolished almost entirely”. In data set [1] (short-term exposure, 4 h, 1 μM), the “p53 (S15) phosphorylation” value is listed as “reduced” and the “specific changes in kinase activity” value is given as “did not cause any specific changes in kinase activity”. Also, in “in vitro”, the EC50 at 72 h came out at 10 µM.

For the compound `C=C(C)[C@@H]1CC[C@]2(C(=O)O)CC[C@]3(C)C(CCC4[C@@]5(C)Cc6c[nH]nc6C(C)(C)C5CC[C@]43C)C12` (stereo partly shown) [Compound 6], the “morphology and actin cytoskeleton” value in the data set on PC3 cells is “No morphologies and visible effects on the actin cytoskeleton”.

The values are drawn from article PMC4428838, “Optimization of Invasion-Specific Effects of Betulin Derivatives on Prostate Cancer Cells through Lead Development” (PLoS ONE, 2015).
